Laboratory results taken from ChEMBL document CHEMBL1201862, “PubChem BioAssay data set” (2004).
Calls of active or inactive are those of the source.

What was measured:
Hexokinase HKDC1 = molecular target: T1, Hexokinase HKDC1 (Homo sapiens, UniProt Q2TB90); test: SAR analysis of small molecule inhibitors of hexokinase domain containing I (HKDC1). [Related pubchem assays (depositor defined):AID493160, AID493190]; assay type: functional
T1 sequence (Q2TB90 whole entry): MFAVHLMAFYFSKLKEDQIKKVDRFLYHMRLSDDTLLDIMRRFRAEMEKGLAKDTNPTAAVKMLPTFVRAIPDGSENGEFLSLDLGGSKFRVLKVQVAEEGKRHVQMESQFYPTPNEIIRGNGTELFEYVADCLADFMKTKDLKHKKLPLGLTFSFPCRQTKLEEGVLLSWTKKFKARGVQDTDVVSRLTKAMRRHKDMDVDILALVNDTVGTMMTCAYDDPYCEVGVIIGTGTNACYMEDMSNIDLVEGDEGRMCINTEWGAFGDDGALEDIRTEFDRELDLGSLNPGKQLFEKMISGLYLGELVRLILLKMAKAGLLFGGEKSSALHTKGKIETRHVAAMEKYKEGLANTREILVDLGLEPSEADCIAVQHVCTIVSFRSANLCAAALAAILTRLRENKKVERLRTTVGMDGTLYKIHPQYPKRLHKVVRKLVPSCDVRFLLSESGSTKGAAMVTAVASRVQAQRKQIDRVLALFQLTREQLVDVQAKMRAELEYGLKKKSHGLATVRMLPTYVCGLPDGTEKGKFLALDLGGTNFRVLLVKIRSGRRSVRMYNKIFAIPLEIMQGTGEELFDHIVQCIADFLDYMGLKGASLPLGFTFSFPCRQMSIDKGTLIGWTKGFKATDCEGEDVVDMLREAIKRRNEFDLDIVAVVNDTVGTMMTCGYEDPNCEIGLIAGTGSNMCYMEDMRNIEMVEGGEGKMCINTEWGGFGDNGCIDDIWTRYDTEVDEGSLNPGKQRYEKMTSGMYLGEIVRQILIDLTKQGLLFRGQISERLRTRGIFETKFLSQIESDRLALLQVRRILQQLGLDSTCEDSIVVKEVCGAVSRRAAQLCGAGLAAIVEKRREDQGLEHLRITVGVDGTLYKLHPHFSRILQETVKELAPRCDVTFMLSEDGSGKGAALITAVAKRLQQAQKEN

Hexokinase-1 = molecular target: T2, Hexokinase-1 (Homo sapiens, UniProt P19367); test: SAR analysis of small molecule inhibitors of hexokinase domain containing I (HKDC1) in the hexokinase 1 selectivity assay. [Related pubchem assays (depositor defined):AID493160, AID493190]; assay type: functional
T2 sequence (P19367 whole entry): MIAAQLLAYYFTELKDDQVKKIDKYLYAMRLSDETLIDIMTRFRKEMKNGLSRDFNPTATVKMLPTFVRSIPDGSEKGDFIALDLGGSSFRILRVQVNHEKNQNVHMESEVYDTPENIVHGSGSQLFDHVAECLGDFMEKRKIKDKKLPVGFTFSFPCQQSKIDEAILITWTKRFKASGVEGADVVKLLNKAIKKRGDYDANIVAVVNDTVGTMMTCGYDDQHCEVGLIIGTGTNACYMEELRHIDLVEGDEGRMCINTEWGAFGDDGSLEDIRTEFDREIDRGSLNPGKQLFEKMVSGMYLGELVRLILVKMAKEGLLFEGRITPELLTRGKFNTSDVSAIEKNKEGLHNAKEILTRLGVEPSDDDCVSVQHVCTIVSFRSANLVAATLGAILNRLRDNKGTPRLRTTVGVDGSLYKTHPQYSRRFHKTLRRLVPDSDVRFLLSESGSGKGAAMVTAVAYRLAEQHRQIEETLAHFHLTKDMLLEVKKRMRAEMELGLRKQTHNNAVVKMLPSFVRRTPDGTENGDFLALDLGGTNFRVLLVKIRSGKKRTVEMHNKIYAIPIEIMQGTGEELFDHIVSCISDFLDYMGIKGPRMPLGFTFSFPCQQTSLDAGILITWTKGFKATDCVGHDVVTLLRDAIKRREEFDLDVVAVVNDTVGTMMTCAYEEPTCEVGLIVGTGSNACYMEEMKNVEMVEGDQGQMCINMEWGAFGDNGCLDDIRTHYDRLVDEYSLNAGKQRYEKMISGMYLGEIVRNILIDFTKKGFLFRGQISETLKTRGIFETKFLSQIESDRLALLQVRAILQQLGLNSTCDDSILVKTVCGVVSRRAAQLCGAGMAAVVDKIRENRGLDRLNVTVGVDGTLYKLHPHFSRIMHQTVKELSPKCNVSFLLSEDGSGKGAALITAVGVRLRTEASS

Cysteine protease ATG4B = molecular target: T3, Cysteine protease ATG4B (Homo sapiens, UniProt Q9Y4P1); assay type: functional;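 further: Fluorescence-based dose-response confirmation assay measuring inhibition of ATG4B activity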
T3 sequence (Q9Y4P1 whole entry): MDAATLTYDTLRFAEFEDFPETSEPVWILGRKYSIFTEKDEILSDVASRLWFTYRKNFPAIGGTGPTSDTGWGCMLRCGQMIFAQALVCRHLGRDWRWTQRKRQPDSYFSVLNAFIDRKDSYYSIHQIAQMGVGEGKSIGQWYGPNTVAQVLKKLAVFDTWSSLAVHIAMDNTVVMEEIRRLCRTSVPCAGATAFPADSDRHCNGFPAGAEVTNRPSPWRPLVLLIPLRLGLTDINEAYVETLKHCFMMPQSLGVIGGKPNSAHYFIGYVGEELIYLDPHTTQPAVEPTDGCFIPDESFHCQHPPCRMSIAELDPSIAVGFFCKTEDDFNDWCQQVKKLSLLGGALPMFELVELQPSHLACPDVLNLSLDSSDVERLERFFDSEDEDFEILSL

Phospholipase A2 = Phospholipase A2 (Homo sapiens, UniProt P04054); assay type: functional;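 further: confirmatory dose-response counterscreen on phospholipase A2, testing hits that came from an ultra-high-throughput screen for ATG4B inhibitors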
Chain of Phospholipase A2 (P04054 whole entry, the tested form may be a part): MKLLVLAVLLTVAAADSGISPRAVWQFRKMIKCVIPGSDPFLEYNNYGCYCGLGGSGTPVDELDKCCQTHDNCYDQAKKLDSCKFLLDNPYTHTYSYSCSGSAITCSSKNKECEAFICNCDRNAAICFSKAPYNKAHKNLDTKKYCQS

[1] = molecular target: T4, Carboxy-terminal domain RNA polymerase II polypeptide A small phosphatase 1 (Homo sapiens, UniProt Q9GZU7); test: CTDSP1 inhibitors, concentration-response, biochemical, absorbance readout, ultra-high-throughput screen actives (AID 540297); assay type: functional
T4 sequence (Q9GZU7 whole entry): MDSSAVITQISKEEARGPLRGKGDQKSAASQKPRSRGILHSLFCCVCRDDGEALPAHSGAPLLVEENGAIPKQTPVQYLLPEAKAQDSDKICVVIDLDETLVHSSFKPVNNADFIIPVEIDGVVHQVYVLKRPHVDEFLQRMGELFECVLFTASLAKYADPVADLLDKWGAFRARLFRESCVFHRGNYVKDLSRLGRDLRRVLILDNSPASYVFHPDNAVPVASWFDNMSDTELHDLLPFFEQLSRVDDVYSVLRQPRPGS

Leucine aminopeptidase = molecular target: T5, Leucine aminopeptidase (Plasmodium falciparum 3D7, UniProt Q8IL11); test: P. falciparum M17LAP inhibitors, primary screen, biochemical, fluorogenic H-Leu-NHMec substrate, 1536-well (AID 1619); assay type: functional
T5 sequence (Q8IL11 whole entry): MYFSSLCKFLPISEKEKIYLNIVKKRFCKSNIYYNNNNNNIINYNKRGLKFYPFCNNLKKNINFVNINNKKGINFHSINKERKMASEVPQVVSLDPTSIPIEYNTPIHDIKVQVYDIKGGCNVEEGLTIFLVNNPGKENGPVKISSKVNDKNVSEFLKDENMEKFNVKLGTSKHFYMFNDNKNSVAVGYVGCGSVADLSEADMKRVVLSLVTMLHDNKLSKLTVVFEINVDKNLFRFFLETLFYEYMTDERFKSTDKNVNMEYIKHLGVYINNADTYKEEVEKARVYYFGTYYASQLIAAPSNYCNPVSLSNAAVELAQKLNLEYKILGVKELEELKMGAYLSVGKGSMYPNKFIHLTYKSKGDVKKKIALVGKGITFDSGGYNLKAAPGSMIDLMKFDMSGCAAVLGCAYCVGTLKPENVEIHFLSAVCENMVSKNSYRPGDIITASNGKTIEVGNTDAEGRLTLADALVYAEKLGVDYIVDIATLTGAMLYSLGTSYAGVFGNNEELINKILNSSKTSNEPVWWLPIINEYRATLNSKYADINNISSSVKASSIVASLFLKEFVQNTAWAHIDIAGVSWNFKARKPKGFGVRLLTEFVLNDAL

[2] = molecular target: ATP-dependent molecular chaperone HSP82 (Candida albicans (strain WO-1) (Yeast), UniProt C4YTQ8); test: steroid-induced GRE reporter decrease in yeast – S. cerevisiae, luminescence, Hsp90 inhibitor project, dose response (AID 2400); assay type: functional, cell-based;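 further: beta-galactosidase luminescence from glucocorticoid response element reporter as proxy for Hsp90 function; inhibitor potency where signal loss means Hsp90 inhibition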
Chain of ATP-dependent molecular chaperone HSP82 (C4YTQ8 whole entry): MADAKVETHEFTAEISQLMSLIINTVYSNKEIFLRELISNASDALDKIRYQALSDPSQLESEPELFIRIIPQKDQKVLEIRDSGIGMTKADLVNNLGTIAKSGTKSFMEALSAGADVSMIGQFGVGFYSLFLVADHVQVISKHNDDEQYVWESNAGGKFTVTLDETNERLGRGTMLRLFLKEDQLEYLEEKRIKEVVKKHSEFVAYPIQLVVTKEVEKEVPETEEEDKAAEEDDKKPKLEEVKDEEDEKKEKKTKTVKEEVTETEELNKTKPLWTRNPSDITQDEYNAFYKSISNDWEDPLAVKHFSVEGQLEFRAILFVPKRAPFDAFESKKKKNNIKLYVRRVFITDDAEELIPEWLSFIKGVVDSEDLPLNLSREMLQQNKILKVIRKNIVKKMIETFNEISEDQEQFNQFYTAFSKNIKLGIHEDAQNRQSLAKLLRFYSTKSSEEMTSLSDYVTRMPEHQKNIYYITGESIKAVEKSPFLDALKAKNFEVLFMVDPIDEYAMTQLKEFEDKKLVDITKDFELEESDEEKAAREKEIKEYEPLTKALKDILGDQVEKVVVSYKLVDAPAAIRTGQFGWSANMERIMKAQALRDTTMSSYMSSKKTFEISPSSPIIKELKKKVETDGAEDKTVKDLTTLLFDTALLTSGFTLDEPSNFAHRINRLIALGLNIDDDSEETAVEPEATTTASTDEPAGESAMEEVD

Bcl-2-related protein A1 = molecular target: T6, Bcl-2-related protein A1 (Mus musculus, UniProt Q07440); assay type: functional;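 further: confirmatory dose–response counterscreen on Bfl-1, used to check hits from a UBC13 polyubiquitin inhibitor campaign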
T6 sequence (Q07440 whole entry): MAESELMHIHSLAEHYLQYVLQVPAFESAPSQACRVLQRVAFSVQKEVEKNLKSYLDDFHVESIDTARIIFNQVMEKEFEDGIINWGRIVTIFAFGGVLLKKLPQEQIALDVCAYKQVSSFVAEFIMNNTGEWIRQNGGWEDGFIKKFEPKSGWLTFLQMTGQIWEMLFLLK

[3] = fluconazole-exposed Candida albicans growth modulators – fluorescence, retest, confirmation (AID 2467); assay type: functional, cell-based
Vero = test: cells; assay type: functional; settings: Chlorocebus sabaeus
[4] = NIH-3T3 fibroblast cytotoxicity, dose response, cytotoxicity control, cell-based, fluorescence, Alamar Blue, secondary assay (AID 2327); assay type: functional;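 further: NIH-3T3 mouse fibroblasts cultured with fluconazole at 8 µg/mL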
[5] = molecular target: T7, Serine/threonine-protein phosphatase (Candida dubliniensis (strain CD36 / CBS 7987 / NCPF 3949 / NRRLY-17841) (Yeast), UniProt B9W6M3); test: blockers of CaCl2-induced CDRE-lacZ signaling – S. cerevisiae, luminescence, secondary, dose response (AID 2388); assay type: functional, cell-based;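 further: yeast reporter cells carrying a calcineurin-responsive lacZ construct stimulated with calcium chloride; luminescent beta-galactosidase reporter signal in whole cells rather than isolated phosphatase activity; potency for inhibition where a drop in reporter signal means calcineurin blockade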
T7 sequence (B9W6M3 whole entry): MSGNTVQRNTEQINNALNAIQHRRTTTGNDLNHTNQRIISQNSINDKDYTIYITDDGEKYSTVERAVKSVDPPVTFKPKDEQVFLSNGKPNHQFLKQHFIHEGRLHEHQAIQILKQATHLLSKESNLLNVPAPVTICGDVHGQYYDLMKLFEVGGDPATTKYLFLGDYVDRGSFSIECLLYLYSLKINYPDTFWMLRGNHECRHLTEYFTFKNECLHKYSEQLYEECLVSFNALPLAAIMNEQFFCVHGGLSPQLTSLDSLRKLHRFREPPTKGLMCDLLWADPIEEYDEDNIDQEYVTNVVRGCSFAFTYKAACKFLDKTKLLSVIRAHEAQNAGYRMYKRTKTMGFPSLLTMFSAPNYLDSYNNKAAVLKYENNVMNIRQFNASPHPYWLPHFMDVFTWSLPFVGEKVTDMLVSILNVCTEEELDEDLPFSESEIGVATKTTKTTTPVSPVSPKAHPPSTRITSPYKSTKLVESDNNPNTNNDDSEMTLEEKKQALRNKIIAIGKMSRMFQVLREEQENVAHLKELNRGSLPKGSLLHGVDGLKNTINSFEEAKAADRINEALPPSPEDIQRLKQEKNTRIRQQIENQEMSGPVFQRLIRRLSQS

[6] = molecular target: T8, Ubiquitin-conjugating enzyme E2 N (Homo sapiens, UniProt P61088); assay type: functional
T8 sequence (P61088 whole entry): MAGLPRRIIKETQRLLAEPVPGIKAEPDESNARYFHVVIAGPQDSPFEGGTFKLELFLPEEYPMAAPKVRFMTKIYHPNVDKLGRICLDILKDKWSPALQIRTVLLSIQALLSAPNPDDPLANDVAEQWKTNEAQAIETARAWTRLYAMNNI

[7] = molecular target: T8, Ubiquitin-conjugating enzyme E2 N; assay type: functional; remark: listed apart in the source

| SMILES | IC50 (Hexokinase HKDC1) | IC50 (Hexokinase-1) | IC50 (Cysteine protease ATG4B) | IC50 (Phospholipase A2) | further results |
| --- | --- | --- | --- | --- | --- |
| COc1cc2c(cc1OC)-c1cc(NCc3ccc4c(c3)OCO4)nc(=O)n1CC2 | > 80 µM (inactive) | > 80 µM (inactive) |  |  |  |
| c1ccc(CSc2nnc3c(n2)OC(c2ccco2)Nc2ccccc2-3)cc1 (stereo not given) |  |  | 43 µM (inactive) | 40.1 µM (inactive) |  |
| Cc1ccc(/C=C/c2nc3ccccc3c(=O)n2Cc2ccccc2)cc1 | > 80 µM (inactive) | > 80 µM (inactive) |  |  |  |
| CCOC(=O)c1ccc(/C=C2/C=C(c3ccccc3)N(c3ccc(Cl)c(C(=O)O)c3)C2=O)cc1 |  |  | 12.3 µM (active) | 8.04 µM (active) | IC50 [1]: 5.15 µM (active); IC50 (Leucine aminopeptidase): 29.5 µM (active) |
| Cc1cc(C)cc(OCC(=O)NNC(=S)NC(=O)C2CC2)c1 |  |  |  |  | EC50 [2]: 17.8 µM (active); IC50 (Bcl-2-related protein A1): > 20 µM (inactive); EC50 [3]: 0.962 µM (active); CC50 (Vero): > 25 µM (active); EC50 [4]: 43.5 µM (active); EC50 [5]: > 180 µM (inactive); IC50 [6]: 7.38 µM (active); IC50 [7]: 7.6 µM (active) |
| CN(C)c1ccc(/C=C/c2nc3ccccc3c(=O)n2Cc2ccccc2)cc1 | > 80 µM (inactive) | > 80 µM (inactive) |  |  |  |
